According to patent US8058243B2, “Method for treating a brain cancer with ifenprodil” (HSC Research and Development Limited Partnership, priority 2006, dated 2011):
Structures can show the parent of a compound that is named as a salt. Where two headings read alike, the source gives them in different places.

System: murine neural precursor cells (neurosphere cultures)
Assay: HTS of LOPAC library against secondary neurosphere cultures, MTT proliferation assay at 3 μM, day 7 (z score, P value)
Type: cell-based, mouse
[1] = LOPAC library screen at 3 μM, secondary neurosphere cultures, MTT
[2] = LOPAC screen, neurosphere MTT proliferation, 3 μM, day 7
[3] = yes/no: significantly inhibited neurosphere proliferation (P<0.01) in primary screen
[4] = LOPAC primary screen, neurosphere MTT proliferation, 3 μM, day 7
[5] = yes/no: significantly inhibited neurosphere proliferation (P<0.01) in the primary screen
[6] = yes = significantly inhibited neurosphere proliferation (P<0.01) in the primary screen
[7] = primary LOPAC screen, 3 μM, MTT, neurosphere proliferation
[8] = yes/no: significantly inhibited neurosphere proliferation in the primary screen
[9] = LOPAC library screen, 3 μM, MTT, neurosphere cultures
[10] = yes/no: significantly inhibited neurosphere proliferation in primary screen
[11] = LOPAC library screen, 3 μM, MTT, secondary neurosphere cultures, day 7
[12] = LOPAC library screen at 3 μM, MTT, secondary neurosphere cultures, screened in singlets

Nc1cc(=O)[nH]c(N)n1 [2,6-Diamino-4-pyrimidinone]
Z Score [1]: −1.072
Z score [2]: −1.072
Activity [3]: no

Br.CCCN(CCC)[C@@H]1CCc2ccc(O)cc2C1 [R-(+)-7-Hydroxy-DPAT hydrobromide]
Z Score: −2.59
Z score [4]: −2.590
Activity [5]: yes

Cc1ccc(OCC(O)C(C)NC(C)C)c2c1CCC2.Cl (centres unmarked) [ICI 118,551 hydrochloride]
Z Score: 1.101
Z score [4]: 1.101
Activity [3]: no

CSc1ccc2c(c1)N(CCC1CCCCN1C)c1ccccc1S2 (centres unmarked) [Thioridazine hydrochloride]
Z Score (168 h, 3 µM): 0.2356
Z score (168 h, 3 µM): 0.236
Activity [5]: no

R(−)-2,10,11-Trihydroxyaporphine hybrobromide
Z Score: −3.309

Cl.Cl.NNCc1cccc(O)c1 [3-Hydroxybenzylhydrazine dihydrochloride]
Z Score: −0.4866
Z score [4]: −0.487
Activity [3]: no

CCOC(=O)c1ncn2c1CN(C)C(=O)c1cc(F)ccc1-2 [Flumazenil]
Activity: no
Z Score [1]: −0.3664
Z score [4]: −0.366

Cl.N=C(N)c1ccccc1 [Benzamidine hydrochloride]
Activity: no
Z Score: 1.509
Z score: 1.509

CCn1cc(C(=O)O)c(=O)c2ccc(C)nc21 [Nalidixic acid sodium]
Z Score: −0.3145
Z score [4]: −0.314
Activity [6]: no

C=CC[N+](C)(C)c1ccc(CCC(=O)CCc2ccc([N+](C)(C)CC=C)cc2)cc1.[Br-].[Br-] [BW 284c51]
Z Score: −0.4017
Z score [7]: −0.402
Activity [8]: no

CC(=O)Oc1ccccc1C(=O)O [Acetylsalicyclic acid]
Z score [7]: −0.481
Activity [8]: no

C[N+]1(CCCCC[N+]2(C)CCCC2)CCCC1.O=C([O-])C(O)C(O)C(=O)O.O=C([O-])C(O)C(O)C(=O)O [Pentolinium di[L(+)-tartrate]]
Z Score [9]: 0.1662
Z score [4]: 0.166
Activity [10]: no

c1ccc2c(c1)OCC(C1=NCCN1)O2 (centres unmarked) [Idazoxan hydrochloride]
Z Score [11]: −1.448
Z score [4]: −1.448
Activity [3]: no

O=c1ccc2ccc(O)c(O)c2o1 [Daphnetin]
Activity: no
Z Score (168 h, 3 µM): −0.9798
Z score (168 h, 3 µM): −0.980

(−)-Tetramisole hydrochloride
Z Score [11]: −1.866

CCS(=O)(=O)Nc1cccc(C(=C2CCCCC2)c2cnc[nH]2)c1 [A-315456]
Z Score: 0.3628
Z score [4]: 0.363
Activity [6]: no

R(−)-2,10,11-Trihydroxy-N-propylnoraporphine hydrobromide
Z Score: −2.744

C=C[C@H]1C[N@@]2CC[C@H]1C[C@H]2[C@H](O)c1ccnc2ccc(OC)cc12 [Quinine sulfate]
Z Score [1]: −0.2686
Z score [4]: −0.269
Activity [10]: no

NC[C@H](O)c1ccc(O)c(O)c1.O=C(O)C(O)C(O)C(=O)O [(B1)-Norepinephrine (+)bitartrate]
Z Score: 0.09903

S-(−)-Eticlopride hydrochloride
Z Score: −5.158

CC(C)(C)NCC(O)c1ccc(O)c(CO)c1 (centres unmarked) [Salbutamol]
Z Score [11]: −1.678
Z score [4]: −1.678
Activity [10]: no

COc1c2c(nc3ccccc13)OC(C(C)(O)CO)C2 (centres unmarked) [Dubinidine]
Z Score: −2.437
Z score [4]: −2.437
Activity [5]: yes

Cl.O=C(Cc1ccc(Cl)c(Cl)c1)N1CCCCC1CN1CCCC1 (centres unmarked) [BRL 52537 hydrochloride]
Z Score: −2.761
Z score [4]: −2.761
Activity [5]: yes

CN1CCN(C2=Nc3ccccc3Oc3ccc(Cl)cc32)CC1 [Loxapine succinate]
Z Score: −0.7477
Z score [4]: −0.748
Activity [3]: no

NC(=O)c1ncn([C@@H]2O[C@H](CO)[C@@H](O)[C@H]2O)c1O [Mizorbine]
Z score [4]: 1.642
Activity [6]: no

Cl.O=C(O)C1=CCCNC1 [Guvacine hydrochloride]
Z Score: −1.345
Z score [4]: −1.345
Activity [3]: no

N[C@H](C(=O)O)c1cc(O)cc(O)c1 [(S)-3,5-Dihydroxyphenyglycine]
Z score [2]: −0.336
Activity [3]: no

O=C(c1cc(O)c(O)c([N+](=O)[O-])c1)c1ccccc1F [Ro 41-0960]
Z Score: −0.36
Z score [4]: −0.360
Activity [10]: no

CN(C)C/C=C(/c1ccc(Br)cc1)c1cccnc1 [Zimelidine dihydrochloride]
Z Score [1]: −0.649
Z score [7]: −0.649
Activity [8]: no

CC1(C)CCC(NC(=O)[C@@H](N)CCC(=O)O)CC1 [CR 2249]
Z Score (168 h, 3 µM): −1.002
Z score (168 h, 3 µM): −1.002
Activity [6]: no

O=C(NCC1CCCCN1)c1cc(OCC(F)(F)F)ccc1OCC(F)(F)F (centres unmarked) [Flecainide acetate]
Z Score [11]: −1.498

CCCN1CCc2cc(O)cc3c2[C@H]1Cc1ccc(O)c(O)c1-3
Z score [4]: −2.744
Activity [5]: yes

O=c1c(-c2ccc(O)cc2)coc2cc(O)ccc12 [Daidzein]
Z Score [11]: −2.931
Z score [4]: −2.931
Activity [5]: yes

COc1cc(C(O)C(=O)O)ccc1O (centres unmarked) [(B1)-Vanillylmandelic acid]
Z Score: −1.811

CNCCc1ccc(O)c(O)c1.Cl [N-Methyldopamine hydrochloride]
Z Score [11]: −1.219
Z score [2]: −1.219
Activity [3]: no

Br.Br.C=CCN1CCc2c(cc(O)c(O)c2Cl)C(c2ccccc2)C1 (racemic) [(±)-Chloro-APB dihydrobromide]
Z score [2]: −0.111
Activity [3]: no

Cn1c(=O)c2[nH]c(C3CCCC3)nc2n(C)c1=O [8-Cyclopentyl-1,3-dimethylxanthine]
Z Score (168 h, 3 µM): −0.1248
Z score (168 h, 3 µM): −0.125
Activity [3]: no

O=C(O)c1cc2cc(Cc3cccnc3)ccc2o1 [Furegrelate sodium]
Z Score [9]: 0.3638
Z score [4]: 0.364
Activity [3]: no

O=C1c2c(O)ccc(O)c2C(=O)c2c(NCCNCCO)ccc(NCCNCCO)c21 [Mitoxantrone]
Z Score [11]: −10.21
Z score [4]: −10.205
Activity [6]: yes

CCN1CCC[C@H]1CNC(=O)c1c(O)c(Cl)cc(Cl)c1OC.O=C(O)C(O)C(O)C(=O)O (racemic) [S(+)-Raclopride L-tartrate]
Z Score [12]: 1.901
Z score [4]: 1.901
Activity [5]: no

CC(C)NC[C@@H](O)c1ccc(O)c(O)c1.O=C(O)C(O)C(O)C(=O)O [S(+)-Isoproterenol(+)-bitartrate]
Z score [4]: −0.296
Activity [3]: no

COc1ccc(CCN(C)CCCC(C#N)(c2cc(OC)c(OC)c(OC)c2)C(C)C)cc1OC.Cl (racemic) [(±)-Methoxyverapamil hydrochloride]
Z score [4]: −1.407
Activity [6]: no

CNc1ncnc2c1ncn2[C@@H]1O[C@H](CO)[C@@H](O)[C@H]1O [N6-Methyladenosine]
Z Score (168 h, 3 µM): 0.7424
Z score (168 h, 3 µM): 0.742
Activity [6]: no

Cn1c(=O)c2[nH]cnc2n(C)c1=O.Cn1c(=O)c2[nH]cnc2n(C)c1=O.NCCN [Aminophylline ethylenediamine]
Activity: no
Z Score [11]: −1.537
Z score [7]: −1.537

C[C@@H]1O[C@H](C[N+](C)(C)C)C[C@H]1O.[Cl-] (racemic) [(±)-Muscarine chloride]
Z score [4]: −1.905
Activity [6]: no

CCN(CC)CCOC(=O)c1ccc(N)cc1 [Procaine hydrochloride]
Z Score [9]: 0.5501
Z score [4]: 0.550
Activity [5]: no

CC(COc1ccccc1)N(CCCl)Cc1ccccc1 (centres unmarked) [Phenoxybenzamine hydrochloride]
Z Score: −1.512
Z score [2]: −1.512
Activity [3]: no

CCC1(C2=NCCN2)Cc2ccccc2O1 (centres unmarked) [Efaroxan hydrochloride]
Z Score [11]: −2.338
Z score [4]: −2.338
Activity [5]: yes

COc1cc(-c2ccc(=O)[nH]n2)ccc1OC(F)F [Zardaverine]
Z Score [1]: −0.3412
Z score [7]: −0.341

C1CNCCN1.COc1cc(C(O)CO)ccc1O.COc1cc(C(O)CO)ccc1O (racemic) [MHPG piperazine]
Z Score [9]: 0.05276
Z score [4]: 0.053
Activity [3]: no

CC(CCc1ccccc1)NC(C)C(O)c1ccc(O)cc1 (centres unmarked) [Nylidrin hydrochloride]
Z Score [11]: −1.375
Z score [4]: −1.375
Activity [6]: no

COC(=O)C1=C(C)NC(C)=C(C(=O)OCCN(C)Cc2ccccc2)C1c1cccc([N+](=O)[O-])c1 (centres unmarked) [Nicardipine hydrochloride]
Z Score [12]: 1.869
Z score [4]: 1.869
Activity [6]: no

O=C(O)c1cc(O)cc(C(=O)O)n1 [Chelidamic acid]
Z Score (168 h, 3 µM): 0.7261
Z score (168 h, 3 µM): 0.726
Activity [3]: no

O=C(O)/C=C\C(=O)O.O=C(O)/C=C\C(=O)O.c1cc(CN2CCCCC2)cc(OCCCNc2nc3ccccc3s2)c1 [SKF 95282 dimaleate]
Z score [7]: 0.424
Activity [8]: no

CC[C@@H]1C(=O)OC[C@@H]1Cc1cncn1C.Cl [(+)-Pilocarpine hydrochloride]
Z Score [11]: −1.548
Z score [4]: −1.548
Activity [6]: no

O=C1CCC(N2C(=O)c3ccccc3C2=O)C(=O)N1 (racemic) [(±)-Thalidomide]
Z score [7]: 0.521
Activity [8]: no

C[N+](C)(C)CCOC(N)=O [Carbachol]
Z Score [9]: −0.03381
Z score [2]: −0.034
Activity [3]: no
